Results taken from US20210355107A1, “MULTI-SUBSTITUTED PYRIDONE DERIVATIVES AND MEDICAL USE THEREOF” (Beijing Yuezhikangtai Biomedicines Co., Ltd., priority 2018, published 2021).

Assays:
tyrosine kinase Tyro3 = biological target: T1, tyrosine kinase Tyro3 (Homo sapiens, UniProt Q06418); experiment: HTRF assay, inhibitory activity against tyrosine kinase Tyro3; assay type: biochemical; settings: ATP at Km (50 μM), two duplicate wells
T1 construct: purchased Carna 08-109
T1 sequence (Q06418 453-890 limits assumed): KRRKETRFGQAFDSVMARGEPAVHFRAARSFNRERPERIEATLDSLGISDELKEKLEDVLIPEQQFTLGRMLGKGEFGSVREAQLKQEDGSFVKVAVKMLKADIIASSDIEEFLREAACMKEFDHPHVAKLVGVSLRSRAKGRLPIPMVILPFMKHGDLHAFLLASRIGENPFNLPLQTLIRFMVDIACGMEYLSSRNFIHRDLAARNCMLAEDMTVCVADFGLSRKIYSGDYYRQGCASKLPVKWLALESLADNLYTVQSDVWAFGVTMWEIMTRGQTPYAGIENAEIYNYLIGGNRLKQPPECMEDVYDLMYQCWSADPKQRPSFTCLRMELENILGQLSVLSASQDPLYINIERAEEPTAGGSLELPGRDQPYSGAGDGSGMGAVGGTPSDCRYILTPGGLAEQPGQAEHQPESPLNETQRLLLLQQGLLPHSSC
Protocol: (§1) Test Example 2: Evaluation of Inhibitory Activity (IC50) of Compounds disclosed herein against Tyrosine Kinases Mer and Tyro3
(§2) In this test, HTRF method was used to test the inhibitory activity of compounds when ATP concentrations correspond to the Km of the kinases. The control substance was RXDX-106. The concentration of test compound was 3-fold diluted from an initial concentration of 10 μM, and two duplicate wells were set.
(§3) Kinase Mer (Carna, Cat. No. 08-108, Lot. No. 14CBS-0421H); Tyro3 (Carna, Cat. No. 08-109, Lot. No. 08CBS-1186H); HTRF kinase-TK kit (Cisbio, Cat. No. 62TK0PEC), the kit comprising: biotin-TK substrate lyophilized powder (Cisbio, Cat. No. 61TK0BLC, Lot. No. 07A), streptavidin-XL665 (Cisbio, Cat. No. 610SAXLG, Lot. No. 126A), TK antibody-cryptate (Cisbio, Cat. No. 610SAXLG, Lot. No. 04A), and detection buffer (including EDTA) (Cisbio, Cat. No. 62TK0PEC, Lot. No. 12A); ATP (Sigma, Cat. No. A7699-5G, CAS No. 34369-07-8, Lot. No. SLBQ6014V); DMSO (Sigma, Cat. No. D5879-1L, Lot. No. SHBH9944); HEPES (Sigma, Cat. No. V900477-500G, CAS No. 7365-45-9, Lot. No. WXBC4716V); MgCl2 (Sigma, Cat. No. 208337-1KG, Lot. No. MKBX9508V); EGTA (Sigma, Cat. No. E3889-100g, CAS 67-42-5, […], Lot. No. SLBG8546V); NP-40 (Beijing Dingguo, Cat. No. DH218, Lot. No. 36R00160); DTT (Sigma, Cat. No. D0632-25g, CAS No. 3483-12-3, Lot. No. SLBF3964V); compound plate (Labcyte, Cat. No. LP0200, Lot. No. 0006386836); assay plate (Greiner, Cat. No. 784075, Lot. No. E16123HM); control substance RXDX-106 (prepared according to the method disclosed in patent WO2013074633).
(§4) 1) Preparation of a buffer: 50 mM HEPES, 10 mM MgCl2, 1 mM EGTA, 0.01% NP-40, 2 mM DTT.
(§5) 2) Preparation of control substance and test samples: RXDX-106 and the compounds disclosed herein were each dissolved in DMSO to 10 mM and then diluted to 1 mM or an appropriate concentration with DMSO, and then serial double dilution was performed using BRAVO (Agilent). 100 nL of each was transferred from a compound plate (Labcyte-LP0200) to an assay plate (Greiner-784075) using ECHO 555 (Labcyte). The final concentration of DMSO was 1%.
(§6) 3) Mer and Tyro3 were each diluted to 0.5 nM and 1.2 nM with the detection buffer (Cisbio, Cat. No. 62TK0PEC, Lot. No. 12A). 5 μL of each was added to a 384-well plate and incubated with the compounds disclosed herein for 30 min at 22-25° C. Final concentrations of Mer and Tyro3 were 0.25 nM and 0.6 nM, respectively.
(§7) 4) Biotin-TK substrate and ATP were each diluted to a concentration twice the final concentration with 1× kinase buffer made up of HEPES, NaN3, BSA and orthovanadate. 5 μL of the mixture of substrate and ATP was added to the 384-well plate to initiate the reaction, which lasts for 1 h at 22-25° C.
(§8) 5) Streptavidin-XL665 and TK antibody-cryptate were diluted to 250 nM and 0.5 nM, respectively, with the detection buffer. […] of each of the two solutions was added to the 384-well plate to initiate the reaction, which lasts for 1 h at 22-25° C. The final concentrations of streptavidin-XL665 and TK antibody-cryptate were 125 nM and 0.25 nM, respectively.
(§9) 6) The fluorescence intensities at 665 nm and 615 nm were read with an Envision Reader (PerkinElmer) .
(§10) 7) IC50 values of the compounds were fitted with XL-fit software.

tyrosine kinase Mer = biological target: T2, tyrosine kinase Mer (Homo sapiens, UniProt Q12866); experiment: HTRF assay, inhibitory activity against tyrosine kinase Mer; assay type: biochemical; settings: ATP at Km (30 μM), two duplicate wells
T2 construct: purchased Carna 08-108
T2 sequence (Q12866 528-999 limits assumed): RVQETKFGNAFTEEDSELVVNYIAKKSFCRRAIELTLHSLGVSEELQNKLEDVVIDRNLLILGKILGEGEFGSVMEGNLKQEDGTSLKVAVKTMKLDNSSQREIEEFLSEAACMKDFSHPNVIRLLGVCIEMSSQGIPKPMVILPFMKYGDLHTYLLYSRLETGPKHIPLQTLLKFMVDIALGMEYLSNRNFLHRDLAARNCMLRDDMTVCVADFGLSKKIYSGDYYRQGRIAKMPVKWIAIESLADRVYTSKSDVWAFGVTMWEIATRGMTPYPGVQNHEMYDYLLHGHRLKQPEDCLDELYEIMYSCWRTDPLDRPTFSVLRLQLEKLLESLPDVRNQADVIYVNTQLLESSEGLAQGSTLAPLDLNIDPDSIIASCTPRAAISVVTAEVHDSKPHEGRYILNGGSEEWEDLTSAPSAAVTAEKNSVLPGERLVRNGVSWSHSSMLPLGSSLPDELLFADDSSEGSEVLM
Protocol: as §1, §2, §3, §4, §5, §6, §7, §8, §9, §10

kinase c-MET = biological target: T3, kinase c-MET (Homo sapiens, UniProt P08581); experiment: Mobility shift assay, inhibitory activity against kinase c-MET; assay type: biochemical; settings: ATP at Km (35 μM), average of two independent experiments
T3 construct: purchased Carna 08-151
Protocol: (§11) In this test, mobility shift assay was used to test the inhibitory activity of compounds when ATP concentrations correspond to the Km of the kinases.
(§12) The concentration of test compound was 10-fold diluted from an initial concentration of 10 μM. The test result (IC50) was the average of two independent experiments.
(§13) For example, a compound at an initial concentration of 10 μM was adjusted to 500 μM with 100% DMSO, then serially diluted for 10 concentrations, and then subjected to 10-fold dilution with the buffer to prepare a diluted compound intermediate containing 10% DMSO, 5 μL of which was transferred to the 384-well plate.
(§14) 10 μL of the two enzyme solutions each was added to the 384-well plate and co-incubated with the compound for 10-15 min at room temperature.
(§15) 10 μL of the diluted substrate was added to the 384-well plate to initiate the reaction, which lasts for 1 h at 28° C.
(§16) 5) The conversion rate was read by Caliper Reader (Perkin Elmer) and the inhibition rate was calculated as the average of two tests.
(§17) 6) IC50 values were fitted with XL-fit software.

kinase Axl = biological target: T4, kinase Axl (Homo sapiens, UniProt P30530); experiment: Mobility shift assay, inhibitory activity against kinase Axl; assay type: biochemical; settings: ATP at Km (81 μM), average of two independent experiments
T4 construct: purchased Carna 08-107
T4 sequence (P30530 473-894 limits assumed): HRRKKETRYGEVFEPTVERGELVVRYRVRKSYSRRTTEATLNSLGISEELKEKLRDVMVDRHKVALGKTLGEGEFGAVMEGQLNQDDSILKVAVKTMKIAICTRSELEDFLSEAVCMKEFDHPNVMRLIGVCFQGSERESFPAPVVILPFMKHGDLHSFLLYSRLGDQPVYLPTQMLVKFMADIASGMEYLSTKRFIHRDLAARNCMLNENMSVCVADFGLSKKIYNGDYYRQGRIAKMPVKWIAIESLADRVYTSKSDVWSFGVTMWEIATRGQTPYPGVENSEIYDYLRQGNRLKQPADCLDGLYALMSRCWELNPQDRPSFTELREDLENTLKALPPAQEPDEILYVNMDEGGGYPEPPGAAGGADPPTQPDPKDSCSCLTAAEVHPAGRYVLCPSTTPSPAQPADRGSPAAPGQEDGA
Protocol: as §11, §12, §13, §14, §15, §16, §17

EBC-1 cells = experiment: EBC-1 cell proliferation, CellTiter-Glo Luminescent Cell Viability Assay; assay type: cell-based; settings: Homo sapiens, 72 h incubation, read-out: IC50 (nM) against EBC-1 cells
Protocol: Test Example 3: Inhibitory Activity of Compounds disclosed herein against EBC-1 Cells
Test method: the inhibitory activity of the compounds against EBC-1 cell proliferation was evaluated using CellTiter-Glo® Luminescent Cell Viability Assay Kit (Promega).
Test procedures: when thawing EBC-1 cells, the cell cryopreservation tube was shaken rapidly in a water bath at 37° C. to thaw the cells in 1 min. The cell suspension after thawing was mixed with RPMI1640 culture medium containing 10% FBS and centrifuged for 5 min at 1000 rpm, and the supernatant was discarded. The cell pellet was suspended in 5 mL of complete culture medium. The suspension was placed in a cell culture flask with a bottom area of 25 cm^2, and cultured in a cell incubator at 37° C./95% humidity/5% CO2. Cell passage was performed when cell confluence reached about 80%. When the cells were passaged, the original cell suspension was directly made uniform by pipetting. 1/6 of the cell suspension was kept, added with 5 mL of new complete culture medium and then made uniform by pipetting. The cell culture flask was then placed in a cell incubator for further culturing. Cell plating was performed when the cell confluence reached about 80% again. With reference to the method for cell passage, 1/6 cell suspension was kept for further culturing when the cells were plated, and the remaining 5/6 of cell suspension was placed in a 15 mL centrifuge tube. Cell viability was detected by trypan blue exclusion using an IC1000 cell counter (Countstar) to ensure that cell viability was above 90%. Cell suspension at a density of 3.33×10^4 viable cells/mL was prepared using complete culture medium, and 90 μL of the cell suspension was added into 96-well cell culture plates, so that the cell density in the cell culture plates (day 0 plate and test compound plate) was 3000 viable cells/well. A control group that contains no cell or compound but only complete culture medium and a control group that contains no compound but cells were set. The cell plates were incubated overnight in a cell incubator. […] 10 μL of the above solution was added into a corresponding cell culture plate to ensure that the initial concentration of the compound was 10 μM, the dilution factor of adjacent concentration was 3.16, and the DMSO content in the cell culture plate was 0.1%. The cell plates were then incubated in the cell incubator for 72 h. During detection, CellTiter-Glo reagent (namely CellTiter-Glo® […] cell viability test reagent, Promega, Cat. No. G7572, Lot. No. 0000310975) was melted, and the cell plate was equilibrated at room temperature for 30 min. The cell plate was added with the CellTiter-Glo reagent at 100 μL per well, and then shaken on a QB-9001 microporous quick shaker (Kylin-Bell) for 5 min to fully lyse the cells. The cell plate was left to stand at room temperature for 20 min to stabilize luminescence signals, and the luminescence value of each well was scanned by a Spectramax M3 multi-functional microplate reader (Molecular Devices) at full wavelength.
Test samples: example compounds of the present invention and cabozantinib (positive control compound).
Data analysis: cell viability was calculated for compounds at various concentrations using the following formula:
Cell viability(%)=(Lumtest compound−Lumculture solution control)/(Lumcell control−Lumculture solution control)×100%,
where Lum refers to the luminescence value of each well of the test compound plate read by the multi-functional microplate reader.
The data were analyzed using GraphPad Prism 7.0 software, fitted with nonlinear S-curve regression to give dose-response curves, and IC50 values were calculated therefrom.

T3 sequence (P08581 956-1390 limits assumed): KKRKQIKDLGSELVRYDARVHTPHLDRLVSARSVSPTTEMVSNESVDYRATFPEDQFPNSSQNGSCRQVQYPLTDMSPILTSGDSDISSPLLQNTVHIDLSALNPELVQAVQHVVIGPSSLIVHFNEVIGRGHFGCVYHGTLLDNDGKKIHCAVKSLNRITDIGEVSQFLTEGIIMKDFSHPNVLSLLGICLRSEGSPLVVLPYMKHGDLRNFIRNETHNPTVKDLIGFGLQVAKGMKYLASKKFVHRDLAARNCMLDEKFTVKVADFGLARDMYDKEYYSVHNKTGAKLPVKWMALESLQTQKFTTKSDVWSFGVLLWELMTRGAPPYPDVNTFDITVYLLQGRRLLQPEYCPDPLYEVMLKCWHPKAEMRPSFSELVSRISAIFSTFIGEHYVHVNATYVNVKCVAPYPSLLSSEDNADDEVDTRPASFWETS

SMILES | IC50 (tyrosine kinase Tyro3) [nM] | IC50 (tyrosine kinase Mer) [nM] | IC50 (kinase c-MET) [nM] | IC50 (kinase Axl) [nM] | IC50 (EBC-1 cells) [nM]
CCn1cc(-c2cnc(N)c(-c3ccc(NC(=O)c4cn(C5CCC5)c(C#N)c(-c5ccc(F)cc5)c4=O)cc3F)c2)cn1 [Example 9, N-(4-(2-amino-5-(1-ethyl-1H-pyrazol-4-yl)pyridin-3-yl)-3-fluoro-phenyl)-6-cyano-5-(4-fluorophenyl)-1-cyclobutyl-4-oxo-1,4-dihydropyridine-3-carboxamide] | 3 | 1.3 | 70 | 4.6 | –
COc1cc2nccc(Oc3ccc(NC(=O)c4cn(C(C)C)c(=O)n(-c5ccc(F)cc5)c4=O)cc3F)c2cc1OC [RXDX-106, reference compound] | 3.3 | 6.4 | – | – | –
CC(C)n1cc(C(=O)Nc2ccc(-c3cc(-c4cnn(C5CCNCC5)c4)cnc3N)c(F)c2)c(=O)n(-c2ccc(F)cc2)c1=O [Example 20, N-(4-(2-amino-5-(1-(piperidin-4-yl)-1H-pyrazol-4-yl)pyridin-3-yl)-3-fluorophenyl)-3-(4-fluorophenyl)-1-isopropyl-2,4-dioxo-1,2,3,4-tetrahydropyrimidine-5-carboxamide] | – | – | 14 | 5.5 | 106
COc1cc2nccc(Oc3ccc(NC(=O)c4cc(C)c(CN)n(-c5ccc(F)cc5)c4=O)cc3F)c2cc1OC [Example 26, 6-(aminomethyl)-N-(4-((6,7-dimethoxyquinolin-4-yl)oxy)-3-fluorophenyl)-1-(4-fluorophenyl)-5-methyl-2-oxo-1,2-dihydro-1,2-dihydropyridine-3-carboxamide] | – | – | 19 | 19 | 132
